Experimental data from PubChem BioAssay (NCI).
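Cultured in 96-well plates, cells were exposed to test compound for 48 hours across five concentrations. At the TGI there is no net growth.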

Assays:
Experiment in all cases: NCI tumour cell line growth inhibition, 48 h
SF-295 CNS = tested on: SF-295 CNS
SK-MEL-28 melanoma = tested on: SK-MEL-28 melanoma
M19-MEL melanoma = tested on: M19-MEL melanoma
SK-MEL-2 melanoma = tested on: SK-MEL-2 melanoma
RXF 393 renal = tested on: RXF 393 renal
OVCAR-3 ovarian = tested on: OVCAR-3 ovarian
NCI-H522 lung = tested on: NCI-H522 lung
EKVX NSCLC = tested on: EKVX NSCLC
SF-539 CNS = tested on: SF-539 CNS
RPMI-8226 leukemia = tested on: RPMI-8226 leukemia
KM20L2 colon = tested on: KM20L2 colon
OVCAR-4 ovarian = tested on: OVCAR-4 ovarian
MALME-3M melanoma = tested on: MALME-3M melanoma
A549 NSCLC = tested on: A549 NSCLC
NCI-H460 lung = tested on: NCI-H460 lung
XF 498 CNS = tested on: XF 498 CNS
SN12C renal = tested on: SN12C renal
DLD-1 colon = tested on: DLD-1 colon
CAKI-1 renal = tested on: CAKI-1 renal
SF-268 CNS = tested on: SF-268 CNS

Measured: TGI

Cc1cc2c(C(C)C)c(O)c(O)c(C=Nc3ccccc3)c2c(O)c1-c1c(C)cc2c(C(C)C)c(O)c(O)c(C=Nc3ccccc3)c2c1O
> 100 µM: all assays above

Cc1c(N=NN(C)C)cc[n+]([O-])c1C
> 100 µM: all assays above
